Source: article PMC9028219 (Frontiers in Nutrition, 2022)
Where two headings read alike, the source gives them in different places.

Columns and labels:
Cyclooxygenase-2 (COX-2) = Cyclooxygenase-2 (COX-2) (Homo sapiens, UniProt P35354); test: COX-2 activity assay in cell lysate; conditions: A549, 100 μM
Description: (§9) Cyclooxygenase-2 (COX-2) activity was measured as reported by Kulmaczand Lands ([33]). The reaction cocktail consists of Tris-HCl buffer (100 mM and pH 8.0), EDTA (3 μM), hematin (15 μM), and cell lysate. After incubation, arachidonic acid (AA) and N,N,N′,N′-tetra methyl-p-phenylenediamine (TMPD) was added to 96 well plates to initiate the reaction. The reaction mixture was immediately auto mixed using the Multiscan Go of Thermo Scientific spectrophotometer, and absorbance was measured at 590 nm ([33]). The enzyme inhibition was calculated concerning control. […] Approximately 40 μM of AA was mixed to initiate the reaction, and the plate was kept for 4 min at room temperature. The reaction was terminated by adding an equal ratio of reagent 1 (4.5 mM FeSo4 in HCl) and reagent 2 (3% NH4SCN). The absorbance was taken at 480 nm using a spectrophotometer ([34]). The enzyme inhibition was compared concerning control.

[1] = target: T1, Dihydrofolate reductase (DHFR) (Homo sapiens, UniProt P00374); test: DHFR activity assay in lysate of treated cells; conditions: cell-based test system, higher tested concentration 100 μM
T1 construct: endogenous in cells; host or cells: FaDu, K562, A549
T1 sequence (P00374 whole entry): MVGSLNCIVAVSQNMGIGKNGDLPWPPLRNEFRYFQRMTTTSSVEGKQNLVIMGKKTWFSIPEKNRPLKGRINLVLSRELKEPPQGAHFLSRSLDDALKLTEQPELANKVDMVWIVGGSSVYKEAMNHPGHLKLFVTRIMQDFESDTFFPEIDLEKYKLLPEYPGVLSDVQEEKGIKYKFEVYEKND
Description: (§1) Protein was estimated by nanodrop before being used for the enzyme assays.
In one set, ~10 μg of cell lysate was incubated with a reaction cocktail (2.3 mM DHFA, 0.11 mM β-NADPH in 50 mM potassium phosphate buffer, and pH 6.5), while another set was incubated in the reaction cocktail containing 0.1% bovine serum albumin (BSA) solution. The reaction mixture was mixed, and the kinetic study was performed at 340 nm for 5 min. The results were calculated using percentage inhibition concerning control ([31]). The ODC activity was determined by the modified method reported by Luqman et al. ([32]). Approximately 10 μg of cell lysate was added to the reaction cocktail (2.5 mM β-mercaptoethanol, 1.5 mM EDTA, 75 nM pyridoxal-phosphate, 3 mM L-ornithine hydrochloride in 150 mM potassium phosphate buffer, and pH 7.1). Approximately, 400 μl of 1 M perchloric acid was used to terminate the reaction, and NaOH (4N) was added to the supernatant. Further, 1-pentanol was added after centrifugation. Then, the upper organic phase was transferred to a microcentrifuge tube with 200 μl sodium borate, 200 μl TNBS, and 400 μl DMSO. Further, it was centrifuged, and 60 μl of supernatant was taken in plate, and absorbance was measured at 412 nm. The graph was plotted in the terms of percentage inhibition.

Lipoxygenase-5 (LOX-5) = Lipoxygenase-5 (LOX-5) (Homo sapiens, UniProt P09917); test: LOX-5 activity assay in cell lysate
Sequence of Lipoxygenase-5 (LOX-5) (P09917 whole entry): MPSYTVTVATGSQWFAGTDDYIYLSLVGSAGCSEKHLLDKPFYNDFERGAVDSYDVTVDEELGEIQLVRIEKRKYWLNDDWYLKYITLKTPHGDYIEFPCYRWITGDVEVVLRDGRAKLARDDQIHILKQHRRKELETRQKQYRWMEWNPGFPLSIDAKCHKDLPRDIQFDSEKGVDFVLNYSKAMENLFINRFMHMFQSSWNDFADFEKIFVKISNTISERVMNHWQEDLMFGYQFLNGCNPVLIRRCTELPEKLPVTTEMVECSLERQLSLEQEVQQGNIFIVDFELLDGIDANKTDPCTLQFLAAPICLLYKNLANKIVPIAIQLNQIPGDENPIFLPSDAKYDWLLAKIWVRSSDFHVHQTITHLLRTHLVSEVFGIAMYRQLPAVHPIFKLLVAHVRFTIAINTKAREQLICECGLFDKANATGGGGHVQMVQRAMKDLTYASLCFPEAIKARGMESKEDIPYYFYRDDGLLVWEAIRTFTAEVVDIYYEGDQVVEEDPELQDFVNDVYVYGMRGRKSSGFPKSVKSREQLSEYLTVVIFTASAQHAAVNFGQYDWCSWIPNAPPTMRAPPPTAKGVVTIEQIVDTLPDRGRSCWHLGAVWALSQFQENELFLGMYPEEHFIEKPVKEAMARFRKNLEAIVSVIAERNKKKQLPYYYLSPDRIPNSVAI
Description: as §9

MCF-7 = test: Anti-proliferative activity (SRB, MTT, NRU assays); assay type: cell-based, human; conditions: MCF-7, higher tested concentration 100 μM
Description: (§2) The cell lines used for the present study were K562 (erythroid leukemia), COLO-205 (colon carcinoma), FaDu (hypopharyngeal carcinoma), MCF-7 (breast ER+ve adenocarcinoma), WRL-68 (hepatocellular carcinoma), A549 (lung carcinoma), and HEK-293 (embryonic kidney). These cell lines were purchased from the National Center for Cell Sciences (NCCS), Pune, India, except FaDu, which Dr. Sarkar endowed from CSIR-Central Drug Research Institute, Lucknow, Uttar Pradesh, India.
(§3) The SRB assay was carried out by following the method reported by Skehan et al. ([27]) with a slight modification ([28]). In 96 well plates, approximately ~2 ×10^3 cells per well were seeded. […] Approximately 20% of TCA was added in treated plates to precipitate cellular proteins, followed by washing cells with tap water and adding 10 μl SRB dye (0.4%) in each well of the plate. Then, the plate was washed with 1% acetic acid to remove the unbound dye. The bound dye was dissolved in 200 μl tris base (10 mM). The absorbance was finally measured at 515 nm using a spectrophotometer (Multiskan^TM Go SkanIt Software, version 4.0, Thermo Fisher Scientific, Waltham, MA, USA).
(§4) The NRU assay was carried out by Babich and Borenfreund ([29]) method. Similar to the SRB assay, 5 μl NRU dye was added to the treated plate. Then, cells were washed with fixative solution after 3 h of incubation; further, the bound dye was solubilized in a dissolving solution. The absorbance was measured at 540 nm ([29]).
(§5) The MTT assay was performed following the protocol as Mosmann ([30]) determined. […] The next day, 10 μl (500 μg/ml) of MTT dye was added to each well of the plate and further incubated for 4 h. After that, the formazan crystal was dissolved in 100 μl DMSO and absorbance was measured at 570 nm. The SRB, NRU, and MTT assays were calculated using percentage cytotoxicity concerning control ([30]).

[2] = tested on: HEK-293 (normal) cell line; test: Anti-proliferative activity (SRB, MTT, NRU assays); assay type: cell-based, human
Description: as §2, §3, §4, §5

COLO-205 = test: Anti-proliferative activity (SRB, MTT, NRU assays); assay type: cell-based, human; conditions: COLO-205, higher tested concentration 100 μM
Description: as §2, §3, §4, §5

WRL-68 = test: Anti-proliferative activity (SRB, MTT, NRU assays); assay type: cell-based, human; conditions: WRL-68, higher tested concentration 100 μM
Description: as §2, §3, §4, §5

[3] = target: T2, Ornithine decarboxylase (ODC) (Homo sapiens, UniProt P11926); test: ODC activity assay in lysate of treated cells; assay type: cell-based; conditions: A549, 100 μM
T2 construct: endogenous in cells; host or cells: A549
T2 sequence (P11926 whole entry): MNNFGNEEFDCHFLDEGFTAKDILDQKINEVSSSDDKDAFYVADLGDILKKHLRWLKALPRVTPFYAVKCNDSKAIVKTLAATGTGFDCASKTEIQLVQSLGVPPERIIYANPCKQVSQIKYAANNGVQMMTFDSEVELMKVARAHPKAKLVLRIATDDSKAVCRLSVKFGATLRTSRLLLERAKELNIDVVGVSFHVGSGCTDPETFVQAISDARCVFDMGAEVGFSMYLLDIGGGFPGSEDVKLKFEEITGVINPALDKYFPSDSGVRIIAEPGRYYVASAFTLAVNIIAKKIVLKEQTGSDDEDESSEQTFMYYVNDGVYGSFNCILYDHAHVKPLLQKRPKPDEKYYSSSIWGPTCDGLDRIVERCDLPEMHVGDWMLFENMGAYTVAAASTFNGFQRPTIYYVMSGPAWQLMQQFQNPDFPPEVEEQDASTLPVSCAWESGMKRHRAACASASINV

FaDu [4] = test: NRU anti-proliferative assay; assay type: cell-based, human
Description: as §2, §4

FaDu cells [5] = test: ROS production (DCFH-DA); assay type: cell-based, human
Description: (§6) The cell cycle analysis was carried out by the protocol reported by Fatima et al. ([40]). The cell lines were fixed with 70% ethanol. Before analysis, fixed cells were washed at least two times with PBS and PI solution containing RNase A to stain the cells. The samples were run on a flow cytometer within 1 h. Treated FaDu cells were incubated with 10 μM of DCFH-DA dye for 30 min then fluorescence was measured at 485/530 nm of […]. For FACS analysis, treated cells were incubated with 10 μM of DCFH-DA dye for 30 min, and the samples were analyzed within 1 h ([41]). The protocol for the analysis of MMP was similar to that of DCFH-DA except for Rhodamine 123 dye ([41]). The experiment was also carried out as per the method reported in Annexin-V-FITC apoptosis detection kit I (BD Pharmingen^TM, Catalog No. 556547). For the assay, 1 × 10^6 cells were grown in 6 well plates and treatment was given 24 h. The next day, cells were washed with cold PBS, and the pellet was resuspended in 100 μl (1X binding) buffer and left for 15 min followed by incubation with a dual fluorescent dye (5 μl FITC and 5 μl PI) for 10 min. The cell suspension was maintained upto 500 μl from the 1X binding buffer. The stained cells were analyzed by flow cytometer within 1 h ([42]).

FaDu cells [6] = test: Mitochondrial membrane potential (Rhodamine 123); assay type: cell-based, human
Description: as §6

[7] = tested on: Sarcoma-180 (S-180) tumor; conditions: for Tumor growth inhibition: days 1-9, evaluated day 12; for Tumor cell count Mean ± S.E / Tumor volume Mean ± S.E / Tumor weight Mean ± S.E: days 1-9, evaluated day 12, n = 5
Description: The S-180 cells were collected from Swiss albino mice harboring 8–10 days old cells from the peritoneal cavity. On day 0, the S-180 cells (1 × 10^7 cells/ml) were injected intra-peritoneal in non-inbred female Swiss albino mice (22–25 g, 8–10 weeks old) selected for the experiment. The next day (Day 1), the animals were randomized and divided into three treatment groups, one positive control group and one vehicle control group containing 5 animals in each group. […] The fourth group was given 5-fluorouracil; positive control at a dose of 20 mg/kg bw i.p. from day 1–9, and the fifth group (control) was administered normal saline (0.2 ml i.p.) for 9 days. On day 12, the animals were sacrificed, and the fluid was collected from each mouse's peritoneal cavity to evaluate tumor growth ([43]). The tumor growth inhibition was calculated using the following formula.
Tumor Growth Inhibition(%)=(Number of tumor cells in control group-Number of tumor cells in the test group)/Number of tumor cells in the control group×100

VEGF = test: ELISA kit assay in FaDu cells; assay type: cell-based, human; conditions: both tested concentrations
Description: (§7) The PI3K expression was determined using a kit procured from Bioassay Technology (Catalog No. E0896Hu). The protocol measured the AKT (Catalog No. 201-12-0893) and HDAC-6 (Catalog No. 201-12-2132) as indicated in the human-specific ELISA kit from Sun Red Company, China. mTOR (Catalog No. E-EL-H1655) was quantified by a kit purchased from ELab Sciences, USA. The VEGF (Catalog No. ab100663) and HIF-1α (Catalog No. ab171577) were estimated using a kit procured from Abcam, UK.

HIF-1α = test: ELISA kit assay in FaDu cells; assay type: cell-based, human; conditions: both tested concentrations
Description: as §7

HDAC-6 = test: ELISA kit assay in FaDu cells; assay type: cell-based, human
Description: as §7

mTOR = test: ELISA kit assay in FaDu cells; assay type: cell-based, human
Description: as §7

AKT = test: ELISA kit assay in FaDu cells; assay type: cell-based, human
Description: as §7

PI3K = test: ELISA kit assay in FaDu cells; assay type: cell-based, human
Description: as §7

Hyaluronidase (HYAL) = test: HYAL activity assay in cell lysate; assay type: cell-based, human
Description: as §1
(§8) The HYAL assay was performed by the standard reported protocol ([35]). Approximately 10 μg of cell lysate added in enzyme diluent buffer (77 mM sodium chloride, 20 mM sodium phosphate, 0.01% albumin, and pH 7.0 at 37°C). The reaction mixture was incubated for 45 min after adding HA (substrate). The mixture was distributed in three parts, each well of the plate containing 25 μl followed by the addition of 125 μl of diluent buffer (79 mM acetic acid, 24 mM sodium acetate, 0.1% albumin bovine, and pH 3.75). The absorbance was measured at 600 nm after 10 min incubation. The graph was shown in the terms of percentage inhibition. Hemoglobin was used as a substrate to determine CATD activity ([36]). Cell lysate (10 μg) was incubated with a reaction cocktail (2.5% of hemoglobin, deionised water, 400 mM citrate buffer, and pH 2.8) for 30 min at 37°C; the reaction was terminated by adding 5% TCA. Then, 200 μl of supernatant was taken in plate after centrifuge and absorbance were measured at 280 nm.

FaDu cells [8] = test: Annexin V-FITC/PI apoptosis assay; assay type: cell-based, human
Description: as §6

FaDu [9] = test: SRB anti-proliferative assay; assay type: cell-based; conditions: Homo sapiens, 72 h
Description: as §2, §3

K562 = test: SRB anti-proliferative assay; assay type: cell-based; conditions: Homo sapiens, K562, 72 h
Description: as §2, §3

A549 = test: NRU anti-proliferative assay; assay type: cell-based; conditions: Homo sapiens
Description: as §2, §4

FaDu cells [10] = test: Cell cycle analysis (PI, flow cytometer); assay type: cell-based, human; conditions: PI staining
Description: as §6

resistant species = conditions: against the resistant species; ref [8], [9]; cited from earlier work
Cathepsin D (CATD) = target: T3, Cathepsin D (CATD) (Homo sapiens, UniProt P07339); test: CATD activity assay in cell lysate; assay type: cell-based
T3 construct: endogenous in cells; host or cells: FaDu, K562, A549
T3 sequence (P07339 65-412): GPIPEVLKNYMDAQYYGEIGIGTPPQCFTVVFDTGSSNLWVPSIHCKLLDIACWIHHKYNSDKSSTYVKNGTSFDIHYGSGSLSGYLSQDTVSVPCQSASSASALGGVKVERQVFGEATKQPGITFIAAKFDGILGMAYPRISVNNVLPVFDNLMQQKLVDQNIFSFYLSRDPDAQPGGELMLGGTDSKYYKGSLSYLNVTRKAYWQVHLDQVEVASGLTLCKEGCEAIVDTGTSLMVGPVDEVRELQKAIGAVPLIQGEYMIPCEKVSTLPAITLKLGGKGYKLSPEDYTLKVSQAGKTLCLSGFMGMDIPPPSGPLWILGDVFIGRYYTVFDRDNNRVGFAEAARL
Description: as §1, §8

FaDu [11] = test: MTT anti-proliferative assay; assay type: cell-based; conditions: Homo sapiens
Description: as §2, §5

[12] = higher concentration (4 x IC50), 24 h

Sequence of Cyclooxygenase-2 (COX-2) (P35354 18-604): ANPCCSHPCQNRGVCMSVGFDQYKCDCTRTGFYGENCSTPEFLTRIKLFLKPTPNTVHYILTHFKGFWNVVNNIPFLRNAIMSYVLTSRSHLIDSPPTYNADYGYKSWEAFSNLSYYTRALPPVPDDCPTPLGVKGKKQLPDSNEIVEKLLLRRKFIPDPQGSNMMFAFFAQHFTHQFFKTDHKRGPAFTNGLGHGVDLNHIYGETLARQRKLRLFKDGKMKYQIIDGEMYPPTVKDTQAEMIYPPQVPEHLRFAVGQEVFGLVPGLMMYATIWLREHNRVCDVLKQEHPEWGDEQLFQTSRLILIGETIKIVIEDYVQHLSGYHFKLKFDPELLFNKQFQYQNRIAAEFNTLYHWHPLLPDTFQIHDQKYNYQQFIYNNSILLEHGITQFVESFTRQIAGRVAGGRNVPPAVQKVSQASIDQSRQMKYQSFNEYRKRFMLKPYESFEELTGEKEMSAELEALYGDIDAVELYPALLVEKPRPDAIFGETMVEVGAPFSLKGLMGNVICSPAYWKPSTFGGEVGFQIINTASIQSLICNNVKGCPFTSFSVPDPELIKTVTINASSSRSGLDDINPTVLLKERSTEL

## Cc1ccc(C(C)C)cc1O [carvacrol, 5-isopropyl-2-methyl phenol]
Cyclooxygenase-2 (COX-2)
  reduction of COX-2 activity: 13.33%
[1]
  suppression of DHFR enzyme action: up to 7%
Lipoxygenase-5 (LOX-5); A549
  suppression of LOX-5 activity: < 50%
Lipoxygenase-5 (LOX-5); K562
  suppression of LOX-5 activity: < 50%
MCF-7
  reduction of proliferation: up to 24%
[2]
  cell growth inhibition: approximately 25%
COLO-205
  reduction of proliferation: up to 24%
WRL-68
  reduction of proliferation: up to 24%
[3]
  reduction of ODC activity: 35.68%
FaDu [4]
  growth inhibition: 35.32 ± 2.85%
FaDu cells [5]
  ROS production: increases the ROS production in FaDu cell line in a dose-dependent manner; however, the effect was non-significant
FaDu cells [6]
  mitochondrial membrane potential: diminishes the membrane potential of the FaDu cell line at the tested concentrations
[7]; 25 mg/kg bw i.p.
  Tumor growth inhibition: 28.12%
  Tumor cell count Mean ± S.E: 57.5 ± 8.72 1 × 10^7
  Tumor volume Mean ± S.E: 3.5 ± 0.54 mL
  Tumor weight Mean ± S.E: 3.36 ± 0.60 g
[7]; 50 mg/kg bw i.p.
  Tumor growth inhibition: 55.94%
  Tumor cell count Mean ± S.E: 35.25 ± 4.68^** 1 × 10^7
  Tumor volume Mean ± S.E: 1.57 ± 0.25 mL
  Tumor weight Mean ± S.E: 1.39 ± 0.33 g
[7]; 75 mg/kg bw i.p.
  Tumor growth inhibition: 72.62%
  Tumor volume Mean ± S.E: 1.16 ± 0.34 mL
  Tumor weight Mean ± S.E: 1.10 ± 0.41 g
[7]; 75, 50 and 25 mg/kg bw i.p.
  effect on mice bw: no adverse effect
[7]; during the experimental period
  mortality: no mortality was noticed
VEGF
  effect on VEGF activity: the effect was non-significant
HIF-1α
  effect on HIF-1α activity: the effect was non-significant
HDAC-6
  effect on HDAC-6 activity: inhibits HDAC-6 activity in a dose-dependent manner
mTOR
  effect on mTOR activity: reduces the activity
AKT
  effect on AKT activity: suppresses the activity of the PI3K/AKT at the higher tested concentration
PI3K
  effect on PI3K activity: suppresses the activity of the PI3K/AKT at the higher tested concentration
Hyaluronidase (HYAL); A549, 100 μM
  reduction of HYAL enzyme action: 39.15%
Hyaluronidase (HYAL); FaDu
  IC50: 88.1 ± 10.4 µM
Hyaluronidase (HYAL); K562
  IC50: 62 ± 8.4 µM
FaDu cells [8]; Annexin V-FITC and PI
  significance of effect on apoptosis and necrosis: non-significant
FaDu cells [8]; [12]
  early apoptosis (A+/P-): 0.1%
  late apoptosis (A+/P+): 1.4%
  necrosis (A-/P+): 3.4%
FaDu [9]
  IC50: 42 ± 11.4 µM
K562
  IC50: 81.3 ± 11.8 µM
A549
  IC50: 80.9 ± 8.28 µM
FaDu cells [10]
  cell cycle phase arrest: arrests the G2/M phase of FaDu cells in a dose-dependent manner
  sub-diploid population: raises the sub-diploid population number
Resistant species
  minimum inhibitory concentration (MIC): 0.015–0.03 % v/v
Cathepsin D (CATD); A549
  suppression of CATD activity: 2 ± 0.52%
Cathepsin D (CATD); FaDu
  suppression of CATD activity: 18.48 ± 0.33%
Cathepsin D (CATD); K562
  suppression of CATD activity: 5 ± 0.94%
FaDu [11]
  IC50: 9.61 ± 0.05 µM
